Source: ChEMBL document CHEMBL1201861, “Genomics of Drug Sensitity in Cancer screening data, Wellcome Trust Sanger Institute”
pIC50: −log10 of the molar value. Several values for one entry are separate records, joined by “and”; a condition that tells them apart may be missing. Equal entries are not always repeated. Where a SMILES comes first, the peptide text is derived from it. The star is where a group is joined. Cbz = O=C(OCc1ccccc1)*

What was measured:
Assay in all cases: cells
SHP77 = assay type: functional, cell-based, Homo sapiens, SHP-77;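 further: growth inhibition of human SHP-77 cells measured by a cell viability assay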
HEL = assay type: functional, cell-based, Homo sapiens;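 further: growth inhibition of HEL cells, read out with a cell viability assay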
NB5 = assay type: functional, cell-based, Homo sapiens;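 further: growth inhibition of NB5 cells, read out as cell viability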
LB1047-RCC = assay type: functional, cell-based, Homo sapiens;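 further: inhibition of cell growth, determined with a cell viability assay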
MHH-NB-11 = assay type: functional, cell-based, Homo sapiens;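 further: growth inhibition of human MHH-NB-11 cells, read out by a cell viability assay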
BB49-HNC = assay type: functional, cell-based, Homo sapiens;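 further: cell viability assay read-out, reported as inhibition of BB49-HNC cell growth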
ATN-1 = assay type: functional, cell-based, Homo sapiens;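 further: growth inhibition of human ATN-1 cells, read out with a cell viability assay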
EW-1 = assay type: functional, cell-based, Homo sapiens
NCI-H1581 = assay type: functional, cell-based, Homo sapiens;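 further: cell growth inhibition read out by a viability assay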
MSTO-211H = assay type: functional, cell-based, Homo sapiens
COLO-668 = assay type: functional, cell-based, Homo sapiens
Becker = assay type: functional, cell-based, Homo sapiens;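 further: growth inhibition of Becker cells, read out with a cell viability assay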
DEL = assay type: functional, cell-based, Homo sapiens;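 further: growth inhibition of the human DEL cell line, read out with a cell viability assay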
no-10 = assay type: functional, cell-based, Homo sapiens;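 further: growth inhibition of no-10 cells, read out with a cell viability assay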
CTB-1 = assay type: functional, cell-based, Homo sapiens
RPMI-8866 = assay type: functional, cell-based, Homo sapiens
LS-411N = assay type: functional, cell-based, Homo sapiens
HH = assay type: functional, cell-based, Homo sapiens
RS4-11 = assay type: functional, cell-based, Homo sapiens;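 further: growth inhibition of RS4-11 cells, read out by a cell viability assay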
NCI-H209 = assay type: functional, cell-based, Homo sapiens;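 further: growth inhibition of human NCI-H209 cells, measured by a cell viability assay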
NH-12 = assay type: functional, cell-based, Homo sapiens;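 further: growth inhibition of NH-12 cells, read out with a cell viability assay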
SW 962 = assay type: functional, cell-based, Homo sapiens;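 further: growth inhibition of human SW962 cells, read out by a cell viability assay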
EW-11 = assay type: functional, cell-based, Homo sapiens;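 further: growth inhibition of human EW-11 cells, measured with a cell viability assay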
C8166 = assay type: functional, cell-based, Homo sapiens;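 further: growth inhibition of human C8166 cells measured by a cell viability assay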
RKO = assay type: functional, cell-based, Homo sapiens;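 further: growth inhibition of human RKO cells, read out with a cell viability assay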
NCI-N87 = assay type: functional, cell-based; conditions: Homo sapiens;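 further: growth inhibition of human NCI-N87 cells, read out with a cell viability assay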
A253 cell line = assay type: functional, cell-based, Homo sapiens;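 further: growth inhibition of A253 cells, read out with a cell viability assay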
NCI-H1299 = assay type: functional, cell-based; conditions: Homo sapiens;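 further: growth inhibition of human NCI-H1299 cells, read out by a cell viability assay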
COLO-320-HSR = assay type: functional, cell-based, Homo sapiens;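 further: growth inhibition of COLO-320-HSR cells, determined with a cell viability assay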
L-428 = assay type: functional, cell-based, Homo sapiens
IST-MES1 = assay type: functional, cell-based, Homo sapiens;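 further: growth inhibition of IST-MES1 cells, measured with a cell viability assay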
NCI-H1355 = assay type: functional, cell-based, Homo sapiens;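 further: growth inhibition of human NCI-H1355 cells, read out by a cell viability assay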
K562 = assay type: functional, cell-based, Homo sapiens
LB996-RCC = assay type: functional, cell-based, Homo sapiens
NEC8 = assay type: functional, cell-based, Homo sapiens;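 further: growth inhibition of human NEC8 cells, read out by a cell viability assay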
NCI-H1304 = assay type: functional, cell-based, Homo sapiens;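 further: growth inhibition of the cancer cell line, measured in a cell viability assay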
OCUB-M = assay type: functional, cell-based; conditions: Homo sapiens;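 further: growth inhibition of the cancer cell line, read out through a cell viability assay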
Ramos-2G6-4C10 = assay type: functional, cell-based, Homo sapiens;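 further: growth inhibition of the cell line, measured by a cell viability read-out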
TGW = assay type: functional, cell-based, Homo sapiens;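 further: growth inhibition of human TGW cells, read out with a cell viability assay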
A388 = assay type: functional, cell-based; conditions: Homo sapiens;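 further: growth inhibition of human A388 cells, read out with a cell viability assay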
ALL-PO = assay type: functional, cell-based, Homo sapiens;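 further: growth inhibition of ALL-PO cells, read out by a cell viability assay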
SK-MEL-1 = assay type: functional, cell-based, Homo sapiens;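 further: growth inhibition of human SK-MEL-1 cells, read out by a cell viability assay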
MPP-89 = assay type: functional, cell-based, Homo sapiens;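 further: growth inhibition of human MPP-89 cells, read out with a cell viability assay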
UACC-257 = assay type: functional, cell-based, Homo sapiens
KLE = assay type: functional, cell-based; conditions: Homo sapiens;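 further: growth inhibition of human KLE cells, read out with a cell viability assay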
GAK = assay type: functional, cell-based, Homo sapiens;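 further: cell growth inhibition read out by a cell viability assay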
TGBC24TKB = assay type: functional, cell-based; conditions: Homo sapiens;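 further: growth inhibition of human TGBC24TKB cells, read out with a cell viability assay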
A498 = assay type: functional, cell-based, Homo sapiens;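 further: growth inhibition of human A498 cells, read out with a cell viability assay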

CC(C)C[C@H](NC(=O)[C@H](Cc1ccccc1)NC(=O)c1cnccn1)B(O)O [BORTEZOMIB]
pIC50 (SHP77; Homo sapiens, SHP77): < 7.70 | pIC50 (HEL; Homo sapiens, HEL): 8.79 | pIC50 (NB5; Homo sapiens, NB5): 8.64 | pIC50 (LB1047-RCC; Homo sapiens, LB1047-RCC): 8.59 | pIC50 (MHH-NB-11; Homo sapiens, MHH-NB-11): 8.31 | pIC50 (BB49-HNC; Homo sapiens, BB49-HNC): 9.19 | pIC50 (ATN-1; Homo sapiens, ATN-1): 8.05 | pIC50 (EW-1; Homo sapiens, EW-1): 8.27 | pIC50 (NCI-H1581; Homo sapiens, NCI-H1581): 7.91 | pIC50 (MSTO-211H; Homo sapiens, MSTO-211H): < 7.70 | pIC50 (COLO-668; Homo sapiens, COLO-668): < 7.70 | pIC50 (Becker; Homo sapiens, Becker): 8.74 | pIC50 (DEL; Homo sapiens, DEL): < 7.70 | pIC50 (no-10; Homo sapiens): 9.68 | pIC50 (CTB-1; Homo sapiens, CTB-1): 8.01 | pIC50 (RPMI-8866; Homo sapiens, RPMI-8866): < 7.70 | pIC50 (LS-411N; Homo sapiens, LS-411N): 8.82 | pIC50 (HH; Homo sapiens, HH): 8.67 | pIC50 (RS4-11; Homo sapiens, RS4-11): < 7.70 | pIC50 (NCI-H209; Homo sapiens, NCI-H209): < 7.70 | pIC50 (NH-12; Homo sapiens, NH-12): < 7.70 | pIC50 (SW 962; Homo sapiens, SW 962): 8.28 | pIC50 (EW-11; Homo sapiens, EW-11): < 7.70 | pIC50 (C8166; Homo sapiens, C8166): < 7.70 | pIC50 (RKO; Homo sapiens, RKO): 8.97 | pIC50 (NCI-N87): < 7.70 | pIC50 (A253 cell line; Homo sapiens, A253): 9.68 | pIC50 (NCI-H1299): < 7.70 | pIC50 (COLO-320-HSR; Homo sapiens, COLO-320-HSR): 8.41 | pIC50 (L-428; Homo sapiens, L-428): < 7.70 | pIC50 (IST-MES1; Homo sapiens, IST-MES1): < 7.70 | pIC50 (NCI-H1355; Homo sapiens, NCI-H1355): 9.05 | pIC50 (K562; Homo sapiens, K562): 8.39 | pIC50 (LB996-RCC; Homo sapiens, LB996-RCC): 8.47 | pIC50 (NEC8; Homo sapiens, NEC8): 8.47 | pIC50 (NCI-H1304; Homo sapiens, NCI-H1304): < 7.70 | pIC50 (OCUB-M): 9.35 | pIC50 (Ramos-2G6-4C10; Homo sapiens, Ramos-2G6-4C10): 9.16 | pIC50 (TGW; Homo sapiens, TGW): 7.78 | pIC50 (A388): 9.45 | pIC50 (ALL-PO; Homo sapiens, ALL-PO): < 7.70 | pIC50 (SK-MEL-1; Homo sapiens, SK-MEL-1): < 7.70 | pIC50 (MPP-89; Homo sapiens, MPP-89): 8.72 | pIC50 (UACC-257; Homo sapiens, UACC-257): 9.15

C[C@@H](Oc1cc(-c2cnn(C3CCNCC3)c2)cnc1N)c1c(Cl)ccc(F)c1Cl [CRIZOTINIB]
pIC50 (SHP77; Homo sapiens, SHP77): < 5.70 | pIC50 (HEL; Homo sapiens, HEL): < 5.70 | pIC50 (NB5; Homo sapiens, NB5): < 5.70 | pIC50 (LB1047-RCC; Homo sapiens, LB1047-RCC): < 5.70 | pIC50 (MHH-NB-11; Homo sapiens, MHH-NB-11): < 5.70 | pIC50 (BB49-HNC; Homo sapiens, BB49-HNC): < 5.70 | pIC50 (ATN-1; Homo sapiens, ATN-1): < 5.70 | pIC50 (EW-1; Homo sapiens, EW-1): < 5.70 | pIC50 (NCI-H1581; Homo sapiens, NCI-H1581): < 5.70 | pIC50 (MSTO-211H; Homo sapiens, MSTO-211H): < 5.70 | pIC50 (COLO-668; Homo sapiens, COLO-668): < 5.70 | pIC50 (Becker; Homo sapiens, Becker): < 5.70 | pIC50 (KLE): < 5.70 | pIC50 (DEL; Homo sapiens, DEL): 6.43 | pIC50 (no-10; Homo sapiens): < 5.70 | pIC50 (CTB-1; Homo sapiens, CTB-1): < 5.70 | pIC50 (GAK; Homo sapiens, GAK): […] | pIC50 (RPMI-8866; Homo sapiens, RPMI-8866): < 5.70 | pIC50 (LS-411N; Homo sapiens, LS-411N): < 5.70 | pIC50 (HH; Homo sapiens, HH): < 5.70 | pIC50 (RS4-11; Homo sapiens, RS4-11): < 5.70 | pIC50 (NCI-H209; Homo sapiens, NCI-H209): < 5.70 | pIC50 (NH-12; Homo sapiens, NH-12): < 5.70 | pIC50 (SW 962; Homo sapiens, SW 962): < 5.70 | pIC50 (EW-11; Homo sapiens, EW-11): < 5.70 | pIC50 (C8166; Homo sapiens, C8166): < 5.70 | pIC50 (RKO; Homo sapiens, RKO): < 5.70 | pIC50 (NCI-N87): < 5.70 | pIC50 (A253 cell line; Homo sapiens, A253): < 5.70 | pIC50 (NCI-H1299): < 5.70 | pIC50 (COLO-320-HSR; Homo sapiens, COLO-320-HSR): < 5.70 | pIC50 (L-428; Homo sapiens, L-428): < 5.70 | pIC50 (IST-MES1; Homo sapiens, IST-MES1): < 5.70 | pIC50 (NCI-H1355; Homo sapiens, NCI-H1355): < 5.70 | pIC50 (K562; Homo sapiens, K562): 5.76 | pIC50 (LB996-RCC; Homo sapiens, LB996-RCC): < 5.70 | pIC50 (NEC8; Homo sapiens, NEC8): < 5.70 | pIC50 (TGBC24TKB): < 5.70 | pIC50 (NCI-H1304; Homo sapiens, NCI-H1304): < 5.70 | pIC50 (OCUB-M): < 5.70 | pIC50 (Ramos-2G6-4C10; Homo sapiens, Ramos-2G6-4C10): < 5.70 | pIC50 (TGW; Homo sapiens, TGW): < 5.70 | pIC50 (A388): < 5.70 | pIC50 (A498; Homo sapiens, A498): < 5.70 | pIC50 (ALL-PO; Homo sapiens, ALL-PO): < 5.70 | pIC50 (SK-MEL-1; Homo sapiens, SK-MEL-1): < 5.70 | pIC50 (MPP-89; Homo sapiens, MPP-89): < 5.70 | pIC50 (UACC-257; Homo sapiens, UACC-257): < 5.70

CC(C)C[C@@H](C=O)NC(=O)[C@H](CC(C)C)NC(=O)[C@H](CC(C)C)NC(=O)OCc1ccccc1 [MG-132] (Cbz-Leu-Leu-Leu-aldehyde)
pIC50 (SHP77; shp-77): < 6.00 | pIC50 (HEL; hel): 6.73 and < 6.00 | pIC50 (NB5; nb5): < 6.00 | pIC50 (LB1047-RCC; Homo sapiens, LB1047-RCC): < 6.00 | pIC50 (LB1047-RCC; lb1047-rcc): < 6.00 | pIC50 (MHH-NB-11; Homo sapiens, MHH-NB-11): < 6.00 | pIC50 (MHH-NB-11; mhh-nb-11): < 6.00 | pIC50 (BB49-HNC; bb49-hnc): 6.31 and < 6.00 | pIC50 (ATN-1; atn-1): < 6.00 | pIC50 (EW-1; ew-1): 6.68 and < 6.00 | pIC50 (NCI-H1581; Homo sapiens, NCI-H1581): < 6.00 | pIC50 (NCI-H1581; nci-h1581): < 6.00 | pIC50 (MSTO-211H; msto-211h): < 6.00 | pIC50 (COLO-668; Homo sapiens, COLO-668): < 6.00 | pIC50 (COLO-668; colo-668): < 6.00 | pIC50 (Becker; becker): 6.10 and < 6.00 | pIC50 (KLE): 6.50 | pIC50 (DEL; del): < 6.00 | pIC50 (no-10): 7.05 and 6.22 | pIC50 (CTB-1; ctb-1): 6.11 and < 6.00 | pIC50 (GAK; gak): 6.69 and < 6.00 | pIC50 (RPMI-8866; Homo sapiens, RPMI-8866): < 6.00 | pIC50 (RPMI-8866; rpmi-8866): < 6.00 | pIC50 (LS-411N; ls-411n): < 6.00 | pIC50 (HH; Homo sapiens, HH): 6.48 | pIC50 (HH; hh): 6.24 | pIC50 (RS4-11; rs4-11): < 6.00 and 6.02 | pIC50 (NCI-H209; nci-h209): < 6.00 | pIC50 (NH-12; nh-12): < 6.00 | pIC50 (SW 962; sw 962): < 6.00 | pIC50 (EW-11; ew-11): < 6.00 | pIC50 (C8166; c8166): < 6.00 | pIC50 (RKO; rko): < 6.00 and 6.03 | pIC50 (NCI-N87): < 6.00 | pIC50 (A253 cell line; a253): 6.79 and < 6.00 | pIC50 (NCI-H1299): < 6.00 | pIC50 (COLO-320-HSR; colo-320-hsr): < 6.00 | pIC50 (L-428; Homo sapiens, L-428): < 6.00 | pIC50 (L-428; l-428): < 6.00 | pIC50 (IST-MES1; ist-mes1): < 6.00 | pIC50 (NCI-H1355; nci-h1355): 6.16 and < 6.00 | pIC50 (K562; k562): < 6.00 | pIC50 (LB996-RCC; lb996-rcc): < 6.00 | pIC50 (NEC8; nec8): 6.92 and < 6.00 | pIC50 (TGBC24TKB): < 6.00 | pIC50 (NCI-H1304; Homo sapiens, NCI-H1304): < 6.00 | pIC50 (NCI-H1304; nci-h1304): < 6.00 | pIC50 (Ramos-2G6-4C10; Homo sapiens, Ramos-2G6-4C10): < 6.00 | pIC50 (Ramos-2G6-4C10; ramos-2g6-4c10): < 6.00 | pIC50 (TGW; tgw): < 6.00 | pIC50 (A498; Homo sapiens, A498): < 6.00 | pIC50 (A498; a498): < 6.00 | pIC50 (ALL-PO; all-po): < 6.00 | pIC50 (SK-MEL-1; Homo sapiens, SK-MEL-1): < 6.00 | pIC50 (SK-MEL-1; sk-mel-1): < 6.00 | pIC50 (MPP-89; mpp-89): < 6.00 | pIC50 (UACC-257; uacc-257): 6.92 and < 6.00
